Results taken from patent US4025623A, “4'-Epi-6'-hydroxyadriamycin and method of use” (priority 1974, dated 1977).
In brackets after ≈: the same amount, converted by molar mass. Like-named read-outs stand apart in the source and are kept apart here.

Key:
[1] = tested on: HeLa cells; assay: HeLa cells cloning efficiency (in vitro); type: cell-based; settings: for IC50: Homo sapiens, HeLa, read-out: ID50 HeLa cells cloning efficiency
Description: (1) HeLa cells were exposed to each of compounds (I) and (V) for 2, 8 and 24 hours, after which the compounds were removed and the cells seeded on […]. Falcon plastic dishes (200 cells/plate) in a growth medium. The number of colonies was ascertained microscopically 5 days later.
(§1) The test compounds were dissolved in distilled water and then diluted in culture medium.
(§2) The results are reported in Table I as ID50 (Inhibiting Dose 50%), calculated on dose-effects lines.

[2] = tested on: Moloney Sarcoma virus (MSV); assay: MSV foci formation in mouse embryo fibroblasts (in vitro); type: cell-based; settings: Fibroblast, read-out: ID50 MSV foci formation
Description: (§3) (2) Mouse embryo fibroblasts (MEF) were plated on 35 mm. Falcon plastic dishes, infected 24 hours later with Moloney Sarcoma virus (MSV), and treated for 3 days with different concentrations of the compounds of the invention. The number of foci of transformed cells was microscopically ascertained 5 days after the infection. Uninfected MEF were similarly treated, and at the end of the test, the cells were counted in a hemocytometer. In all the tests, the cells were incubated in a 5% CO2 incubator at 37° C.
as §1, §2

[3] = MEF proliferation (uninfected mouse embryo fibroblasts, in vitro); type: cell-based; settings: time of exposure 72 hours, read-out: ID50 MEF proliferation
Description: as §3, §1

[4] = tested on: ascites Sarcoma 180; assay: Antitumor activity on ascites Sarcoma 180 in CD 1 mice; type: in vivo; settings: for T/C, median survival time as % over controls: 1 treatment i.p. at day 1; for LTS, Long Term survivors: after 60 days
Description: (§4) The antitumor activity of the compounds of the invention was tested on ascites Sarcoma 180. 3 month old CD 1 mice were used. Sarcoma 180 ascites cells were inoculated intraperitoneally (10^6 cells/mouse).
(§5) The test compounds were dissolved in distilled water, then diluted in Ringer's solution, and administered intraperitoneally 1 day after the tumor implant (10 ml./kg. of body weight). The toxicity of the test compounds was evaluated by macroscopic autoptic examination, mainly in terms of reduction in spleen size. The comparison of the effectiveness of the tested compounds is based on the maximum increase in median survival time, as compared to untreated controls, over the dose range used. The number of Long Term Survivors (LTS) refers to tumor-free mice at the end of the test (60 days).

[5] = Toxicity in Sarcoma 180 bearing CD 1 mice (toxic deaths, autopsy); type: in vivo
Description: as §4, §5

Row | SMILES | CC50 at 72 h [3] [µg/mL] | T/C, median survival time as % over controls ([4]; 2 mg./kg.) [%] | T/C, median survival time as % over controls ([4]; 10 mg./kg.) [%] | IC50 ([1]; 2 h) [µg/mL] | IC50 ([1]; 8 h) [µg/mL] | IC50 ([1]; 24 h) [µg/mL] | IC50 ([2]; 72 h) [µg/mL] | LTS, Long Term survivors ([4]; 0.5 mg./kg. i.p. at day 1) | T/C, median survival time as % over controls ([4]; 0.5 mg./kg.) [%] | LTS, Long Term survivors ([4]; 1 mg./kg. i.p. at day 1) | T/C, median survival time as % over controls ([4]; 1 mg./kg.) [%] | LTS, Long Term survivors ([4]; 2 mg./kg. i.p. at day 1) | T/C, median survival time as % over controls ([4]; 5 mg./kg.) [%] | Toxicity, number of mice which died as a result of the toxic effects of the compound ([5]; 5 mg./kg. i.p. at day 1) | LTS, Long Term survivors ([4]; 10 mg./kg. i.p. at day 1) | other results
1 | COc1cccc2c1C(=O)c1c(O)c3c(c(O)c1C2=O)C[C@@](O)(C(C)=O)C[C@@H]3O[C@H]1C[C@H](N)[C@@H](O)[C@H](CO)O1 [4'-epi-6'-hydroxydaunomycin] | 0.25 (≈ 0.46 µM) | 100 | 167 | – | – | – | – | – | – | – | – | – | – | – | – | IC50 ([1]; time of exposure 2 hours): > 10 µg/mL; IC50 ([1]; time of exposure 8 hours): > 10 µg/mL; IC50 ([1]; time of exposure 24 hours): 1.3 µg/mL (≈ 2.39 µM); decrease of activity as compared to parent compound ([1]; in vitro systems tested (HeLa cells, MSV foci, MEF proliferation), compared with 4'-epi-6'-hydroxyadriamycin versus adriamycin): The decrease of activity was higher; IC50 ([2]; time of exposure 72 hours): 0.1 µg/mL (≈ 0.184 µM); T/C, median survival time as % over controls ([4]; 50 mg./kg.): 137%; Toxicity, number of mice which died as a result of the toxic effects of the compound ([5]; 50 mg./kg. i.p. at day 1): 1/10
2 | COc1cccc2c1C(=O)c1c(O)c3c(c(O)c1C2=O)C[C@@](O)(C(C)=O)C[C@@H]3O[C@H]1C[C@H](N)[C@H](O)[C@H](C)O1 [Daunomycin, daunomycin] | 0.009 (≈ 0.0171 µM) | 192 | – | 0.03 (≈ 0.0569 µM) | 0.013 (≈ 0.0246 µM) | 0.003 (≈ 0.00569 µM) | 0.0055 (≈ 0.0104 µM) | 3/20 | 146 | 8/55 | 172 | 11/68 | 176 | 14/50 | – | T/C, median survival time as % over controls ([4]; 8 mg./kg.): 78%; Toxicity, number of mice which died as a result of the toxic effects of the compound ([5]; 8 mg./kg. i.p. at day 1): 7/10
3 | COc1cccc2c1C(=O)c1c(O)c3c(c(O)c1C2=O)C[C@@](O)(C(=O)CO)C[C@@H]3O[C@H]1C[C@H](N)[C@@H](O)[C@H](CO)O1 [4'-epi-6'-hydroxyadriamycin] | 0.05 (≈ 0.0894 µM) | – | 162 | 0.9 (≈ 1.61 µM) | 1 (≈ 1.79 µM) | 1 (≈ 1.79 µM) | 0.025 (≈ 0.0447 µM) | – | – | – | – | – | – | – | 2/10 | LTS, Long Term survivors ([4]; 7.5 mg./kg. i.p. at day 1): 1/10; T/C, median survival time as % over controls ([4]; 7.5 mg./kg.): 143%; LTS, Long Term survivors ([4]; 15 mg./kg. i.p. at day 1): 2/10; T/C, median survival time as % over controls ([4]; 15 mg./kg.): 134%; Toxicity (in words) ([5]; 15 mg./kg. i.p. at day 1): not toxic
4 | COc1cccc2c1C(=O)c1c(O)c3c(c(O)c1C2=O)C[C@@](O)(C(=O)CO)C[C@@H]3O[C@H]1C[C@H](N)[C@H](O)[C@H](C)O1 [Adriamycin, adriamycin] | 0.007 (≈ 0.0129 µM) | 210 | 212 | 0.28 (≈ 0.515 µM) | 0.11 (≈ 0.202 µM) | 0.018 (≈ 0.0331 µM) | 0.0025 (≈ 0.0046 µM) | 1/10 | 142 | 25/159 | 183 | 30/125 | 243 | 7/125 | 18/139 | LTS, Long Term survivors ([4]; 5 mg./kg. i.p. at day 1): 27/125; Toxicity, number of mice which died as a result of the toxic effects of the compound ([5]; 10 mg./kg. i.p. at day 1): 18/139
